Tests used:
Test in all cases: relative viability (nuclei count vs DMSO), 5 days (fraction); higher = more cells survive
Adavosertib + OSI-027 = compound: C=CCn1c(=O)c2cnc(Nc3ccc(N4CCN(C)CC4)cc3)nc2n1-c1cccc(C(C)(C)O)n1 [Adavosertib] + COc1cccc2cc(-c3nc([C@H]4CC[C@H](C(=O)O)CC4)n4ncnc(N)c34)[nH]c12 [OSI-027] (partner 0.5 µM)
Method in brief: (§1)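 Nuclei were stained with Hoechst during a one-step fixation (final 0.05% Triton X-100, 1% formaldehyde, 1 ug/ml Hoechst) carried out 5 days after dosing, then counted on 4× images. The cells, lung cancer lines in 1536-well plates, had been dosed by pin tool the day after seeding with one drug alone or a fixed anchor-drug dose plus five library-drug doses (not always all listed) in √10 steps. Relative viability is the nuclei count in treated wells divided by that in vehicle wells, and each value is the median of duplicate plates.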

Nelarabine + Luminespib = compound: COc1nc(N)nc2c1ncn2[C@@H]1O[C@H](CO)[C@@H](O)[C@@H]1O [Nelarabine] + CCNC(=O)c1noc(-c2cc(C(C)C)c(O)cc2O)c1-c1ccc(CN2CCOCC2)cc1 [Luminespib] (partner 0.01 µM)
Method in brief: as §1

Nelarabine + Lapatinib = compound: COc1nc(N)nc2c1ncn2[C@@H]1O[C@H](CO)[C@@H](O)[C@@H]1O [Nelarabine] + CS(=O)(=O)CCNCc1ccc(-c2ccc3ncnc(Nc4ccc(OCc5cccc(F)c5)c(Cl)c4)c3c2)o1 [Lapatinib] (partner 2 µM)
Method in brief: as §1

Nelarabine + AZD7762 = compound: COc1nc(N)nc2c1ncn2[C@@H]1O[C@H](CO)[C@@H](O)[C@@H]1O [Nelarabine] + NC(=O)Nc1cc(-c2cccc(F)c2)sc1C(=O)N[C@H]1CCCNC1 [AZD7762] (partner 0.2 µM)
Method in brief: as §1

Cell Line | relative viability (Adavosertib + OSI-027; first compound 0.01 µM) | relative viability (Adavosertib + OSI-027; first compound 0.03162 µM) | relative viability (Adavosertib + OSI-027; first compound 0.1 µM) | relative viability (Adavosertib + OSI-027; first compound 0.3162 µM) | relative viability (Nelarabine + Luminespib; first compound 0.01 µM) | relative viability (Nelarabine + Luminespib; first compound 0.03162 µM) | relative viability (Nelarabine + Luminespib; first compound 0.1 µM) | relative viability (Nelarabine + Luminespib; first compound 0.3162 µM) | relative viability (Nelarabine + Luminespib; first compound 1 µM) | relative viability (Nelarabine + Lapatinib; first compound 0.01 µM) | relative viability (Nelarabine + Lapatinib; first compound 0.03162 µM) | relative viability (Nelarabine + Lapatinib; first compound 0.1 µM) | relative viability (Nelarabine + Lapatinib; first compound 0.3162 µM) | relative viability (Nelarabine + Lapatinib; first compound 1 µM) | relative viability (Nelarabine + AZD7762; first compound 0.01 µM) | relative viability (Nelarabine + AZD7762; first compound 0.03162 µM) | relative viability (Nelarabine + AZD7762; first compound 0.1 µM) | relative viability (Nelarabine + AZD7762; first compound 0.3162 µM) | relative viability (Nelarabine + AZD7762; first compound 1 µM)
HCC-827 | 0.779 | 0.832 | 0.738 | 0.724 | 0.889 | 0.68 | 0.644 | 0.511 | 0.385 | 0.196 | 0.205 | 0.169 | 0.179 | 0.194 | 0.203 | 0.208 | 0.158 | 0.175 | 0.163
HOP-62 | 0.92 | 0.907 | 0.852 | 0.85 | 1.19 | 0.736 | 1 | 1.1 | 0.961 | 1.35 | 1.08 | 1.18 | 1.11 | 1 | 0.684 | 0.396 | 0.602 | 0.798 | 0.48
IA-LM |  |  |  |  |  |  |  |  |  | 1.01 | 0.74 | 0.829 | 0.9 | 0.932 |  |  |  |  | 
LC-2-ad | 0.834 | 0.94 | 0.892 | 0.694 | 1.1 | 1.09 | 0.932 | 1.08 | 0.916 | 1.28 | 1.03 | 0.991 | 1.06 | 1.08 | 1.01 | 0.96 | 0.859 | 0.908 | 0.856
LCLC-97TM1 | 0.484 | 0.459 | 0.584 | 0.49 | 0.912 | 0.688 | 0.856 | 0.713 | 0.78 | 0.854 | 0.778 | 0.667 | 0.818 | 1.14 | 0.273 |  | 0.351 | 0.281 | 0.215
LCLC-103H | 0.458 | 0.441 | 0.428 | 0.417 | 1.26 | 0.905 | 0.969 | 1.06 | 0.99 |  |  |  |  |  | 0.829 | 0.75 | 0.71 | 0.855 | 0.838
NCI-H441 | 0.758 | 0.56 | 0.471 | 0.425 | 0.306 | 0.372 | 0.286 | 0.294 | 0.268 |  |  |  |  |  | 1.33 | 1.2 | 1.43 | 1.14 | 1.23
NCI-H520 | 0.298 | 0.262 | 0.212 | 0.224 | 0.252 | 0.249 | 0.184 | 0.27 | 0.218 | 0.991 | 0.947 | 1.31 | 0.889 | 0.887 |  |  |  |  | 
NCI-H522 | 0.809 | 0.784 | 0.718 | 0.659 |  | 0.993 | 1.25 | 0.96 | 1.29 |  |  |  |  |  | 0.844 | 1.02 | 0.813 | 0.86 | 0.949
NCI-H661 | 0.762 | 0.723 | 0.685 | 0.284 | 1.04 | 1.09 | 0.928 | 0.914 | 0.911 | 0.497 | 0.644 | 0.556 | 0.502 | 0.509 |  |  |  |  | 
NCI-H1299 |  |  |  |  |  |  |  |  |  | 1 | 0.999 | 1.02 | 0.98 | 1 |  |  |  |  | 
NCI-H1563 | 0.737 | 0.812 | 0.766 | 0.757 | 0.527 | 0.58 | 0.584 | 0.549 | 0.564 | 0.944 | 1.02 | 0.985 | 0.998 | 1.03 |  |  |  |  | 
NCI-H1648 | 0.273 | 0.293 | 0.248 | 0.251 |  |  |  |  |  |  |  |  |  |  |  | 0.597 |  | 0.638 | 0.664
NCI-H1650 | 0.447 | 0.775 | 0.563 | 0.384 | 0.195 | 0.181 | 0.225 | 0.234 | 0.204 | 0.882 | 0.834 | 0.783 | 0.831 | 0.826 |  |  |  |  | 
NCI-H1703 |  |  |  |  |  |  |  |  |  | 1.65 | 1.33 | 1.42 | 1.05 | 1.11 | 0.17 | 0.0897 | 0.132 | 0.131 | 0.104
NCI-H2009 | 0.698 | 0.644 | 0.651 | 0.366 | 1.16 | 1.05 | 1.02 | 1.07 | 1.05 | 1.04 | 1.03 | 0.869 | 1.07 | 1.03 |  |  |  |  | 
NCI-H2023 | 0.465 | 0.35 | 0.304 | 0.203 | 1.07 | 0.596 | 0.905 | 0.834 | 0.7 | 1.48 | 1.15 | 0.642 | 0.812 | 0.948 |  |  |  |  | 
NCI-H2228 | 0.509 | 0.651 | 0.618 | 0.142 | 0.182 | 0.156 |  | 0.161 | 0.151 | 1.1 | 1.1 |  | 0.974 | 0.977 |  |  |  |  | 
NCI-H2342 | 0.575 | 0.566 | 0.676 | 0.616 | 0.775 | 0.707 | 0.657 | 0.753 | 0.765 |  |  |  |  |  | 0.508 | 0.5 | 0.439 | 0.555 | 0.464
SK-LU-1 | 0.394 | 0.324 | 0.296 | 0.182 | 0.225 | 0.154 | 0.215 | 0.199 | 0.223 | 1.24 | 0.617 | 0.887 | 0.94 | 0.885 |  |  |  |  | 
SK-MES-1 | 0.681 | 0.576 | 0.428 | 0.198 | 0.954 | 0.622 | 0.748 | 0.847 | 0.797 | 0.432 | 0.544 | 0.456 | 0.563 | 0.555 |  |  |  |  | 
SW 900 |  | 0.554 | 0.494 | 0.436 | 0.175 | 0.175 | 0.173 | 0.179 | 0.179 |  |  |  |  |  | 0.636 | 0.569 | 0.556 | 0.645 | 0.535
SW 1573 | 0.645 | 0.626 | 0.882 | 0.278 | 0.168 | 0.174 | 0.164 | 0.34 | 0.229 | 1.14 | 1.13 | 1.11 | 1.18 | 1.2 |  |  |  |  | 
UMC-11 | 0.48 | 0.442 | 0.432 | 0.444 | 1.24 | 0.961 | 1.03 | 0.973 | 0.893 | 1.05 | 0.863 | 1.02 | 1.02 | 1.14 |  |  |  |  | 

Source: the supplement of paper PMC10307832
